In ChEMBL document CHEMBL5154690, “Discovery of a tricyclic farnesoid X receptor agonist HEC96719, a clinical candidate for treatment of non-alcoholic steatohepatitis” (Eur J Med Chem, 2022):
Activity calls are given as the source filed them. The calls are words filed in the database; no cut-off is given here.

Columns and labels:
Estrogen receptor = molecular target: T1, Estrogen receptor (Homo sapiens, UniProt P03372); experiment: Agonist activity at estrogen receptor alpha (unknown origin)
T1 sequence (P03372 whole entry): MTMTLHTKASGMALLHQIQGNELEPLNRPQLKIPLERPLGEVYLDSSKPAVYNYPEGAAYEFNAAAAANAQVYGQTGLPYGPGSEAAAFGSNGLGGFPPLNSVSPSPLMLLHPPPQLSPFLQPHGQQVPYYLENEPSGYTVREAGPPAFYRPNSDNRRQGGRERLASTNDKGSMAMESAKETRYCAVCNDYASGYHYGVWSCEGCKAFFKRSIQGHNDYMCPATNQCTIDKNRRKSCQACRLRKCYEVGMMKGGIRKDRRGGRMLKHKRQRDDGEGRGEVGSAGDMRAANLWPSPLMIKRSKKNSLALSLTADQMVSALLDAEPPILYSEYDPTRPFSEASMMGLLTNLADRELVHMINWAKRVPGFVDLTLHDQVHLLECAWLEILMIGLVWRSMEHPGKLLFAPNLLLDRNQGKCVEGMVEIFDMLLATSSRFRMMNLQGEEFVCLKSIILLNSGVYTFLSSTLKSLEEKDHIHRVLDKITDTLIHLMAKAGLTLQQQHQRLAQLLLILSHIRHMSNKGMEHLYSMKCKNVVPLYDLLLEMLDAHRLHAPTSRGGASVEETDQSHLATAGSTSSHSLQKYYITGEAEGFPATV

[1] = molecular target: T2, Peroxisome proliferator-activated receptor gamma (Homo sapiens, UniProt P37231); experiment: Agonist activity at PPARgamma (unknown origin)
T2 sequence (P37231 whole entry): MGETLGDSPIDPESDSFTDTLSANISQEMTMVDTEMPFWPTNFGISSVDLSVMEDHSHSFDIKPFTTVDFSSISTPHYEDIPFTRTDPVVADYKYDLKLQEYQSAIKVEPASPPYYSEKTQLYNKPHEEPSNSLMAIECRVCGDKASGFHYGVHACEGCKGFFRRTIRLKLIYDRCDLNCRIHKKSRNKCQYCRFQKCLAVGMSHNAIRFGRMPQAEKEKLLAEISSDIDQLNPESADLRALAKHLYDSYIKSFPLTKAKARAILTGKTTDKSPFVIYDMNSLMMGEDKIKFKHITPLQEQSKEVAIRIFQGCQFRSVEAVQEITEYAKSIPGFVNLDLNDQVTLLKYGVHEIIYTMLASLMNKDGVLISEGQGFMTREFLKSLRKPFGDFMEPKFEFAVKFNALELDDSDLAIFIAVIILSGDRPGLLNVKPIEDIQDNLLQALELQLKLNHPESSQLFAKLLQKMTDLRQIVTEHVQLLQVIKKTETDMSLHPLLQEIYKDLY

[2] = molecular target: T3, Bile acid receptor (Rattus norvegicus) (UniProt Q62735); experiment: In vivo activation of FXR in male Sprague-Dawley rat assessed as fold increase in FGF15 level at 5 mg/kg, po administered once daily for 14 days measured at 6 hrs by ELISA; type: functional, organism-based; settings: time 14.0 day
T3 sequence (whole entry): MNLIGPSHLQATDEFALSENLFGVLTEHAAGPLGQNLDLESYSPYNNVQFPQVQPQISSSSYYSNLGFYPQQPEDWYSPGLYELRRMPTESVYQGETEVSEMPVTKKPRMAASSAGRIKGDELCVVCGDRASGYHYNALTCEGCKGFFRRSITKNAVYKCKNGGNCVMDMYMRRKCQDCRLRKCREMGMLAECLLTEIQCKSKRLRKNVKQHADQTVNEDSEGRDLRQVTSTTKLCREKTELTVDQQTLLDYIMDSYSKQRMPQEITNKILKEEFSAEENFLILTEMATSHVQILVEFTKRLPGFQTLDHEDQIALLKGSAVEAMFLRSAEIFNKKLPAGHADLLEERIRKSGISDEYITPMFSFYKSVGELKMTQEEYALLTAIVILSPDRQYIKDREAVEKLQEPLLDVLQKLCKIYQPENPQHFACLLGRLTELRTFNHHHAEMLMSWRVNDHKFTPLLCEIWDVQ

Mus musculus [3] = experiment: Anti-NASH activity against high fat (HF) diet-induced nonalcoholic steatohepatitis in leptin-deficient ob/ob mouse model assessed as reduction in NASH activity score (NAS) at 0.3 to 1 mg/kg, po administered once daily from week 5 to 10; type: functional, organism-based; settings: dose 0.3-1 mg/kg
Mus musculus [4] = experiment: Anti-NASH activity in western style diet-induced nonalcoholic steatohepatitis model of male C57BL/6 mouse assessed as reduction in serum ALT level at 1 mg/kg, po administered once daily from week 32 to 44; type: functional, organism-based
Mus musculus [5] = experiment: Anti-NASH activity in western style diet-induced nonalcoholic steatohepatitis model of male C57BL/6 mouse assessed as reduction in liver fibrosis at 1 mg/kg, po administered once daily from week 32 to 44; type: functional, organism-based
[6] = Half-life in male Beagle dog at 5 mg/kg, po measured by LC-MS/MS analysis; type: ADME, organism-based, Canis lupus familiaris; settings: in vivo
[7] = Oral bioavailability in male Beagle dog at 5 mg/kg measured by LC-MS/MS analysis; type: ADME, organism-based, Canis lupus familiaris; settings: in vivo
[8] = Drug recovery in pancreas of male Sprague-Dawley rat at 4.5 mg/kg, po administered as C14-lableled compound and assessed as radioactivity and measured at 0.25 hrs; type: ADME, organism-based; settings: in vivo
[9] = Drug recovery in liver of male Sprague-Dawley rat at 4.5 mg/kg, po administered as C14-lableled compound and assessed as radioactivity and measured at 0.25 hrs; type: ADME, organism-based; settings: in vivo
[10] = Drug recovery in skin of male Sprague-Dawley rat at 4.5 mg/kg, po administered as C14-lableled compound and assessed as radioactivity and measured at 0.25 hrs; type: ADME, organism-based, Skin of body; settings: in vivo
[11] = Drug recovery in brain of male Sprague-Dawley rat at 4.5 mg/kg, po administered as C14-lableled compound and assessed as radioactivity and measured at 1 hr; type: ADME, organism-based; settings: in vivo
[12] = Drug recovery in ileum of male Sprague-Dawley rat at 4.5 mg/kg, po administered as C14-lableled compound and assessed as radioactivity and measured at 1 hr; type: ADME, organism-based; settings: in vivo
[13] = Drug recovery in heart of male Sprague-Dawley rat at 4.5 mg/kg, po administered as C14-lableled compound and assessed as radioactivity and measured at 6 hrs; type: ADME, organism-based; settings: in vivo, BLD = below limit of detection
[14] = Drug recovery in pancreas of male Sprague-Dawley rat at 4.5 mg/kg, po administered as C14-lableled compound and assessed as radioactivity and measured at 6 hrs; type: ADME, organism-based; settings: in vivo, BLD = below limit of detection
[15] = Ratio of drug level in heart to plasma in male Sprague-Dawley rat at 4.5 mg/kg, po administered as C14-lableled compound and measured at 0.25 to 6 hrs; type: ADME, organism-based; settings: other tissue, time 0.25-6 hrs
[16] = Ratio of drug level in pancreas to plasma in male Sprague-Dawley rat at 4.5 mg/kg, po administered as C14-lableled compound and measured at 0.25 to 6 hrs; type: ADME, organism-based; settings: other tissue, time 0.25-6 hrs
[17] = Ratio of drug level in kidney to plasma in male Sprague-Dawley rat at 4.5 mg/kg, po administered as C14-lableled compound and measured at 0.25 to 6 hrs; type: ADME, organism-based; settings: other tissue, time 0.25-6 hrs
[18] = Toxicity in po dosed Sprague-Dawley rat assessed as maximum tolerated dose; type: organism-based; settings: in vivo

O=C(O)c1ccc2c(c1)Oc1ccc(OCc3c(-c4c(Cl)cccc4Cl)noc3C3CC3)nc1C1(CC1)C2
EC50 (Estrogen receptor): > 10 µM
EC50 [1]: > 10 µM
fold change (FC) [2]: 18
Activity (Mus musculus [3]): Active
Activity (Mus musculus [4]): Active
Activity (Mus musculus [5]): Active
half-life [6]: 3.42 h
bioavailability [7]: 42.3%
Drug recovery [8]: 177 ngequiv/g
Drug recovery [9]: 5308 ngequiv/g
Drug recovery [10]: 33.3 ngequiv/g
Drug recovery [11]: 38.2 ngequiv/g
Drug recovery [12]: 1553 ngequiv/g
Drug recovery [13]: Bld
Drug recovery [14]: Bld
Ratio [15]: 1
Ratio [16]: 0.8
Ratio [17]: 1.8
MTD [18]: 2000 mg/kg
